Source: patent US11446309B2, “Combination therapy for cancer using bromodomain and extra-terminal (BET) protein inhibitors” (Dana-Farber Cancer Institute, Inc., priority 2013, dated 2022)

Test system: H2122 human lung cancer line, m855 mouse GEM line, diffuse large B-cell lymphoma and Burkitt's lymphoma cell lines
Assay: Combination with JQ1, cell viability isobolograms (cell line not stated for the result)
Assay type: cell-based
Conditions: for Effect on JQ1 activity at doses where the agent alone has no effect: in combination with JQ1, doses where they alone have no effect
Method: Compounds were profiled against H2122 human lung cancer line and m855 mouse GEM line containing p53/kRas mutations. Compounds were also profiled against diffuse large B-cell lymphoma cell lines OCI-Ly1, OCI-Ly3, OCI-Ly4, OCI-Ly7, S-DHL4, SU-DHL6, SU-DHL7, HBL1, K422, U2932 and Toledo, and against Burkitt's lymphoma cell lines Raji and Ca46.
Using a Biotek EL406, 50 uL of cell media containing 20-60,000 cells/ml was distributed into white 384-well Nunc plates (Thermo). Suspension cells then received compound immediately while adherent cells lines were given one hour to reattach to the surface of the plate prior to compound addition. The compounds to be tested were dissolved in DMSO and arrayed on 384 well compound storage plates (Greiner). Each compound plate received one compound in 5 point dose response approximately centered on the IC50 of the given compound for a given cell line.
After addition of compound, cell plates were incubated for 72 hr in a […] incubator. Cell viability was evaluated using ATPlite (Perkin Elmer) following manufacturer protocols. Data was analyzed in CalcuSyn utilizing the median effect principle of presented by Chou-Talalay and visualized using GraphPad Prism Software. Key parameters assessed were combination index and dose reduction index.
Points below the 1 to 1 line connecting the X and Y axes are ‘synergistic’, points near the line are ‘additive’, and points above it are antagonistic.

| Compound | Type of response when administered in combination with JQ1 (isobologram) | Effect on JQ1 activity at doses where the agent alone has no effect |
| --- | --- | --- |
| Cn1c(=O)n(-c2ccc(C(C)(C)C#N)cc2)c2c3cc(-c4cnc5ccccc5c4)ccc3ncc21 [BEZ235] | additive effects | increased the effect of JQ1 |
| COc1cc([C@@H]2c3cc4c(cc3[C@@H](O[C@@H]3O[C@@H]5CO[C@@H](C)O[C@H]5[C@H](O)[C@H]3O)[C@H]3COC(=O)[C@H]23)OCO4)cc(OC)c1O [etoposide] | synergistic response |  |
| NC1(c2ccc(-c3nc4ccn5c(=O)[nH]nc5c4cc3-c3ccccc3)cc2)CCC1 [MK2206] | synergistic response |  |
| C[C@@H](Oc1cc(-c2cnn(C3CCNCC3)c2)cnc1N)c1c(Cl)ccc(F)c1Cl [crizotinib] | synergistic response |  |
| CO[C@H]1C[C@@H]2CC[C@@H](C)[C@@](O)(O2)C(=O)C(=O)N2CCCC[C@H]2C(=O)O[C@H]([C@H](C)C[C@@H]2CC[C@@H](OC(=O)C(C)(CO)CO)[C@H](OC)C2)CC(=O)[C@H](C)/C=C(\C)[C@@H](O)[C@@H](OC)C(=O)[C@H](C)C[C@H](C)/C=C/C=C/C=C/1C [temsirolimus] | additive effects | increased the effect of JQ1 |
